# Measured values from patent US9932637B2, “Genetic polymorphisms associated with cardiovascular disorders and drug response, methods of detection and uses thereof” (CELERA CORPORATION, priority 2003, dated 2018).
# System: patients with prior myocardial infarction (CARE study)
# Assay: CARE: association of SNPs with pravastatin treatment in cardiovascular events prevention (logistic regression, odds ratio pravastatin vs placebo by genotype; Table 8)
# Assay type: in vivo, human
# Conditions: for Definite Nonfatal MI, n/total (%) / Fatal/Nonfatal MI (def & prob), n/total (%) / MI (Fatal/Nonfatal), n/total (%) / Nonfatal MI (def & prob), n/total (%): BCL2A1 hCV7509650, All Patients
# From the text: In order to identify genetic markers associated with acute coronary events (e.g. MI, stroke, unstable angina, congestive heart failure, etc.) or response to statin treatment for the prevention of coronary events, samples from the Cholesterol and Recurrent Events (CARE) study (a randomized multicentral double-blinded trial on secondary prevention of acute coronary events with pravastatin) (Sacks et al., 1991, Am. J. Cardiol. 68: 1436-1446) were genotyped. A well-documented myocardial infarction (MI) was one of the enrollment criteria for entry into the CARE study. Patients were enrolled in the CARE trial from 80 participating study centers. […] Patients were randomized to receive either 40 mg of pravastatin once daily or a matching placebo. The primary endpoint of the trial was death from coronary heart disease and the median duration of follow-up was 5.0 years (range, 4.0 to 6.2 years). […] Secondary endpoints of other related cardiovascular or metabolic disease events, and changes in clinical variables were also recorded in pravastatin-treated and placebo groups. All individuals included in the study had signed a written informed consent form and the study protocol was approved by the respective Institutional Review Boards (IRBs).
# For genotyping SNPs in CARE patient samples, DNA was extracted from blood samples using conventional DNA extraction methods such as the QIA-amp kit from Qiagen. Genotypes were obtained on an ABI PRISM® 7900HT Sequence Detection PCR system (Applied Biosystems, Foster City, Calif.) by kinetic allele-specific PCR, similar to the method described by Germer et al. (Germer S., Holland M. J., Higuchi R. 2000, Genome Res. 10: 258-266).
# Statistical analysis for association of SNPs with pravastatin treatment in cardiovascular events prevention (Table 8) was carried out using an overall logistic regression model that included an intercept, a parameter for the effect of a genotype containing two rare alleles versus a genotype containing no rare alleles, a parameter for the effect of a genotype containing one rare allele versus a genotype containing no rare alleles, a parameter for the effect of use of pravastatin versus the use of placebo, and parameters for the interaction effects between SNP genotypes and pravastatin use. The test of the overall model is a chi-square test with two degrees of freedom for analyses containing all three genotypes, and one degree of freedom for analyses containing two genotypes.
# Effect sizes were estimated through odds ratios (pravastatin group versus placebo) for carriers of each genotype (groups of 0, 1, and 2 minor allele carriers). The effect was considered to be significant if p-value for testing whether any of the interactions between SNP genotypes and pravastatin use were <0.05. […] Odds ratios less than one indicate that the specific SNP allele has a protective effect and odds ratios greater than one indicate that the specific SNP allele has an adverse effect.
# [1] = CCL4 hCV12120554, All Patients, 0 Rare Alleles, Prava arm
# [2] = CCL4 hCV12120554, All Patients, 1 Rare Allele, Prava arm
smiles,measurement,setting,value
CC[C@H](C)C(=O)O[C@H]1C[C@H](O)C=C2C=C[C@H](C)[C@H](CC[C@@H](O)C[C@@H](O)CC(=O)O)[C@H]21 [pravastatin],Odds ratio pravastatin vs placebo,"APOE hCV905013, All Patients, Nonfatal MI (Probable/Definite), 1 rare allele",0.91
same,Odds ratio pravastatin vs placebo,"APOE hCV905013, All Patients, Nonfatal MI (Probable/Definite), 2 rare alleles",0.49
same,"Definite Nonfatal MI, n/total (%)","0 Rare Alleles, Prava arm",(6.3%)
same,"Fatal/Nonfatal MI (def & prob), n/total (%)","0 Rare Alleles, Prava arm",(8.7%)
same,"MI (Fatal/Nonfatal), n/total (%)","0 Rare Alleles, Prava arm",(9.1%)
same,"Nonfatal MI (def & prob), n/total (%)","0 Rare Alleles, Prava arm",(8.1%)
same,"Definite Nonfatal MI, n/total (%)","1 Rare Allele, Prava arm",(7.9%)
same,"Fatal/Nonfatal MI (def & prob), n/total (%)","1 Rare Allele, Prava arm",(11.4%)
same,"MI (Fatal/Nonfatal), n/total (%)","1 Rare Allele, Prava arm",(11.4%)
same,"Nonfatal MI (def & prob), n/total (%)","1 Rare Allele, Prava arm",(10.2%)
same,"Definite Nonfatal MI, n/total (%)","2 Rare Alleles, Prava arm",(3.9%)
same,"Fatal/Nonfatal MI (def & prob), n/total (%)","2 Rare Alleles, Prava arm",(6.9%)
same,"MI (Fatal/Nonfatal), n/total (%)","2 Rare Alleles, Prava arm",(6.9%)
same,"Nonfatal MI (def & prob), n/total (%)","2 Rare Alleles, Prava arm",(6.9%)
same,Odds ratio pravastatin vs placebo,"BCL2A1 hCV7509650, All Patients, Definite Nonfatal MI, 0 rare alleles",0.55
same,Odds ratio pravastatin vs placebo,"BCL2A1 hCV7509650, All Patients, Definite Nonfatal MI, 1 rare allele",1.09
same,Odds ratio pravastatin vs placebo,"BCL2A1 hCV7509650, All Patients, Definite Nonfatal MI, 2 rare alleles",0.35
same,Odds ratio pravastatin vs placebo,"BCL2A1 hCV7509650, All Patients, Fatal/Nonfatal MI (def & prob), 0 rare alleles",0.51
same,Odds ratio pravastatin vs placebo,"BCL2A1 hCV7509650, All Patients, Fatal/Nonfatal MI (def & prob), 1 rare allele",1.00
same,Odds ratio pravastatin vs placebo,"BCL2A1 hCV7509650, All Patients, Fatal/Nonfatal MI (def & prob), 2 rare alleles",0.46
same,Odds ratio pravastatin vs placebo,"BCL2A1 hCV7509650, All Patients, MI (Fatal/Nonfatal), 0 rare alleles",0.53
same,Odds ratio pravastatin vs placebo,"BCL2A1 hCV7509650, All Patients, MI (Fatal/Nonfatal), 1 rare allele",0.99
same,Odds ratio pravastatin vs placebo,"BCL2A1 hCV7509650, All Patients, MI (Fatal/Nonfatal), 2 rare alleles",0.46
same,Odds ratio pravastatin vs placebo,"BCL2A1 hCV7509650, All Patients, Nonfatal MI (def & prob), 0 rare alleles",0.52
same,Odds ratio pravastatin vs placebo,"BCL2A1 hCV7509650, All Patients, Nonfatal MI (def & prob), 1 rare allele",1.09
same,Odds ratio pravastatin vs placebo,"BCL2A1 hCV7509650, All Patients, Nonfatal MI (def & prob), 2 rare alleles",0.56
same,"Cardiovascular Mortality, n/total (%)",[1],(4.0%)
same,"Fatal Atherosclerotic Cardiovascular Disease, n/total (%)",[1],(4.0%)
same,"Fatal Coronary Heart Disease, n/total (%)",[1],(3.5%)
same,"Fatal/Nonfatal Atherosclerotic CV Disease, n/total (%)",[1],(34.4%)
same,"Total Coronary Heart Disease Events, n/total (%)",[1],(30.5%)
same,"Total Mortality, n/total (%)",[1],(6.0%)
same,"Cardiovascular Mortality, n/total (%)",[2],(2.5%)
same,"Fatal Atherosclerotic Cardiovascular Disease, n/total (%)",[2],(2.2%)
same,"Fatal Coronary Heart Disease, n/total (%)",[2],(2.2%)
same,"Fatal/Nonfatal Atherosclerotic CV Disease, n/total (%)",[2],(29.9%)
same,"Total Coronary Heart Disease Events, n/total (%)",[2],(25.1%)
same,"Total Mortality, n/total (%)",[2],(4.0%)
same,Odds ratio pravastatin vs placebo,"CCL4 hCV12120554, All Patients, Cardiovascular Mortality, 0 rare alleles",1.30
same,Odds ratio pravastatin vs placebo,"CCL4 hCV12120554, All Patients, Cardiovascular Mortality, 1 rare allele",0.31
same,Odds ratio pravastatin vs placebo,"CCL4 hCV12120554, All Patients, Fatal Atherosclerotic Cardiovascular Disease, 0 rare alleles",1.30
same,Odds ratio pravastatin vs placebo,"CCL4 hCV12120554, All Patients, Fatal Atherosclerotic Cardiovascular Disease, 1 rare allele",0.28
same,Odds ratio pravastatin vs placebo,"CCL4 hCV12120554, All Patients, Fatal Coronary Heart Disease, 0 rare alleles",1.28
same,Odds ratio pravastatin vs placebo,"CCL4 hCV12120554, All Patients, Fatal Coronary Heart Disease, 1 rare allele",0.31
same,Odds ratio pravastatin vs placebo,"CCL4 hCV12120554, All Patients, Fatal/Nonfatal Atherosclerotic CV Disease, 0 rare alleles",0.86
same,Odds ratio pravastatin vs placebo,"CCL4 hCV12120554, All Patients, Fatal/Nonfatal Atherosclerotic CV Disease, 1 rare allele",0.55
same,Odds ratio pravastatin vs placebo,"CCL4 hCV12120554, All Patients, Total Coronary Heart Disease Events, 0 rare alleles",0.87
same,Odds ratio pravastatin vs placebo,"CCL4 hCV12120554, All Patients, Total Coronary Heart Disease Events, 1 rare allele",0.55
same,Odds ratio pravastatin vs placebo,"CCL4 hCV12120554, All Patients, Total Mortality, 0 rare alleles",1.17
same,Odds ratio pravastatin vs placebo,"CCL4 hCV12120554, All Patients, Total Mortality, 1 rare allele",0.40
same,"Total Coronary Heart Disease Events, n/total (%)","CCL11 hCV7449808, All Patients, 0 Rare Alleles, Prava, n/total 310/1025",(30.2%)
same,"Fatal/Non-fatal Atherosclerotic CV Disease, n/total (%)","CCL11 hCV7449808, All Patients, 0 Rare Alleles, Prava, n/total 359/1025",(35.0%)
same,"Hosp. for Cardiovascular Disease, n/total (%)","CCL11 hCV7449808, All Patients, 0 Rare Alleles, Prava, n/total 423/1025",(41.3%)
same,"Total Cardiovascular Disease Events, n/total (%)","CCL11 hCV7449808, All Patients, 0 Rare Alleles, Prava, n/total 436/1025",(42.5%)
same,"Total Coronary Heart Disease Events, n/total (%)","CCL11 hCV7449808, All Patients, 1 Rare Allele, Prava, n/total 127/448",(28.3%)
same,"Fatal/Non-fatal Atherosclerotic CV Disease, n/total (%)","CCL11 hCV7449808, All Patients, 1 Rare Allele, Prava, n/total 139/448",(31.0%)
same,"Hosp. for Cardiovascular Disease, n/total (%)","CCL11 hCV7449808, All Patients, 1 Rare Allele, Prava, n/total 176/448",(39.3%)
same,"Total Cardiovascular Disease Events, n/total (%)","CCL11 hCV7449808, All Patients, 1 Rare Allele, Prava, n/total 181/448",(40.4%)
